ChEMBL document CHEMBL1147043, “Comparative metabolism of radiolabeled muraglitazar in animals and humans by quantitative and qualitative metabolite profiling” (Drug Metab Dispos, 2007)

Tests used:
[1] = Drug concentration in bile duct-cannulated cynomolgus monkey urine assessed as recovery of radioactive dose at 5 mg/kg, po after 48 hrs; type: ADME, organism-based, Macaca fascicularis; design: dose 5 mg/kg, route oral; details: in vivo
Hepatocyte [2] = experiment: Metabolic stability in Sprague-Dawley rat hepatocytes assessed as hydroxyl-O-demethyl muraglitazar glucuronide level by LC/MS analysis relative to control; type: ADME, cell-based
[3] = Biodistribution in orally dosed human feces assessed as 12-hydroxy muraglitazar level by LC/MS analysis; type: ADME, organism-based; details: in vivo, po
[4] = Biodistribution in orally dosed human urine assessed as O-dealkyl muraglitazar level by LC/MS analysis; type: ADME, organism-based; details: in vivo, po
Plasma [5] = experiment: Biodistribution in orally dosed cynomolgus monkey plasma assessed as O-Dealkyl muraglitazar level after 4 hrs by LC/MS analysis; type: ADME, organism-based, Macaca fascicularis; details: in vivo, po
[6] = Biodistribution in orally dosed cynomolgus monkey urine assessed as O-demethyl muraglitazar level by LC/MS analysis; type: ADME, organism-based, Macaca fascicularis; details: in vivo, po
[7] = Metabolic stability in cynomolgus monkey hepatocytes assessed as O-demethyl muraglitazar level by LC/MS analysis relative to control; type: ADME, cell-based, Macaca fascicularis, Hepatocyte
[8] = Metabolic stability in cynomolgus monkey hepatocytes assessed as 8-hydroxy muraglitazar level by LC/MS analysis relative to control; type: ADME, cell-based, Macaca fascicularis, Hepatocyte
Hepatocyte [9] = experiment: Metabolic stability in Sprague-Dawley rat hepatocytes assessed as 8,12-dihydroxy muraglitazar level by LC/MS analysis relative to control; type: ADME, cell-based
[10] = Biodistribution in orally dosed cynomolgus monkey urine assessed as 9-hydroxy muraglitazar level by LC/MS analysis; type: ADME, organism-based, Macaca fascicularis; details: in vivo, po
[11] = Metabolic stability in CD1 mouse hepatocytes assessed as O-Dealkyl muraglitazar level by LC/MS analysis relative to control; type: ADME, cell-based, Hepatocyte
[12] = Metabolic stability in cynomolgus monkey hepatocytes assessed as hydroxyl muraglitazar glucuronide level by LC/MS analysis relative to control; type: ADME, cell-based, Macaca fascicularis, Hepatocyte
[13] = Drug concentration in bile duct-cannulated CD1 mouse urine assessed as recovery of radioactive dose at 1 mg/kg, po after 24 hrs; type: ADME, organism-based; design: dose 1 mg/kg, route oral; details: in vivo
Plasma [14] = experiment: Biodistribution in orally dosed human plasma assessed as 17-dihydroxy muraglitazar level after 4 hrs by LC/MS analysis; type: ADME, organism-based; details: in vivo, po
[15] = Bile excretion of compound in bile duct-cannulated orally dosed cynomolgus monkey within 48 hrs; type: ADME, organism-based, Macaca fascicularis; details: po, read-out: Activity
Plasma [16] = experiment: Biodistribution in orally dosed Sprague-Dawley rat plasma assessed as 12-hydroxy-O-demethyl muraglitazar level after 12 hrs by LC/MS analysis; type: ADME, organism-based; details: in vivo, po
[17] = Tmax in Beagle dog at 2 mg/kg, po after 4 hrs; type: ADME, organism-based, Canis lupus familiaris; design: dose 2 mg/kg, route oral; details: in vivo
[18] = Metabolic stability in CD1 mouse hepatocytes assessed as O-demethyl muraglitazar level by LC/MS analysis relative to control; type: ADME, cell-based, Hepatocyte
Plasma [19] = experiment: Biodistribution in orally dosed cynomolgus monkey plasma assessed as muraglitazar glucuronide level after 12 hrs by LC/MS analysis; type: ADME, organism-based, Macaca fascicularis; details: in vivo, po
[20] = Fecal excretion rate in orally dosed Beagle dog within 24 hrs; type: ADME, organism-based, Canis lupus familiaris; details: faeces, po, read-out: Activity
[21] = Biodistribution in orally dosed Beagle dog feces assessed as imide derivative of muraglitazar level by LC/MS analysis; type: ADME, organism-based, Canis lupus familiaris; details: in vivo, po
Plasma [22] = experiment: Biodistribution in orally dosed Beagle dog plasma assessed as 12-dihydroxy muraglitazar level after 1 hr by LC/MS analysis; type: ADME, organism-based, Canis lupus familiaris; details: in vivo, po
Hepatocyte [23] = experiment: Metabolic stability in Sprague-Dawley rat hepatocytes assessed as di-oxygenated muraglitazar level by LC/MS analysis relative to control; type: ADME, cell-based
Hepatocyte [24] = experiment: Metabolic stability in human hepatocytes assessed as 9-hydroxy muraglitazar level by LC/MS analysis relative to control; type: ADME, cell-based
Hepatocyte [25] = experiment: Metabolic stability in human hepatocytes assessed as radioactivity recovaries at 25.6 ug/mL after 4 hrs; type: ADME, cell-based
Hepatocyte [26] = experiment: Metabolic stability in human hepatocytes assessed as muraglitazar glucuronide level by LC/MS analysis relative to control; type: ADME, cell-based
[27] = Biodistribution in orally dosed human feces assessed as imide derivative of muraglitazar level by LC/MS analysis; type: ADME, organism-based; details: in vivo, po
Rattus norvegicus [28] = experiment: Biodistribution in orally dosed Sprague-Dawley rat urine assessed as muraglitazar 12-carboxylic acid level by LC/MS analysis; type: ADME, organism-based; details: in vivo, po
[29] = Drug concentration in bile duct-cannulated cynomolgus monkey bile assessed as recovery of radioactive dose at 5 mg/kg, po after 48 hrs; type: ADME, organism-based, Macaca fascicularis; design: dose 5 mg/kg, route oral; details: in vivo
[30] = Metabolic stability in cynomolgus monkey hepatocytes assessed as O-dealkyl-O-demethyl muraglitazar level by LC/MS analysis relative to control; type: ADME, cell-based, Macaca fascicularis, Hepatocyte
Hepatocyte [31] = experiment: Metabolic stability in Sprague-Dawley rat hepatocytes assessed as 12-hydroxy-O-demethyl muraglitazar level by LC/MS analysis relative to control; type: ADME, cell-based
Plasma [32] = experiment: Biodistribution in orally dosed Sprague-Dawley rat plasma assessed as 17-hydroxy-O-demethyl muraglitazar level after 12 hrs by LC/MS analysis; type: ADME, organism-based; details: in vivo, po
Hepatocyte [33] = experiment: Metabolic stability in Sprague-Dawley rat hepatocytes assessed as O-dealkyl-O-demethyl muraglitazar level by LC/MS analysis relative to control; type: ADME, cell-based
[34] = Biodistribution in orally dosed human feces assessed as 8,12-dihydroxy muraglitazar level by LC/MS analysis; type: ADME, organism-based; details: in vivo, po
Plasma [35] = experiment: Biodistribution in orally dosed Sprague-Dawley rat plasma assessed as O-demethyl muraglitazar level after 4 hrs by LC/MS analysis; type: ADME, organism-based; details: in vivo, po
[36] = Biodistribution in orally dosed human feces assessed as 8-hydroxy-O-demethyl muraglitazar level by LC/MS analysis; type: ADME, organism-based; details: in vivo, po
[37] = Half life in Sprague-Dawley rat at 10 mg/kg, po after 24 hrs; type: ADME, organism-based; design: dose 10 mg/kg, route oral; details: in vivo
Plasma [38] = experiment: Biodistribution in orally dosed Beagle dog plasma assessed as 17-dihydroxy muraglitazar level after 1 hr by LC/MS analysis; type: ADME, organism-based, Canis lupus familiaris; details: in vivo, po
[39] = Biodistribution in orally dosed Beagle dog feces assessed as 8-hydroxy muraglitazar level by LC/MS analysis; type: ADME, organism-based, Canis lupus familiaris; details: in vivo, po
Rattus norvegicus [40] = experiment: Cmax in Sprague-Dawley rat at 10 mg/kg, po after 24 hrs; type: ADME, organism-based; design: dose 10 mg/kg, route oral; details: in vivo
Plasma [41] = experiment: Biodistribution in orally dosed cynomolgus monkey plasma assessed as O-demethyl muraglitazar glucuronide level after 4 hrs by LC/MS analysis; type: ADME, organism-based, Macaca fascicularis; details: in vivo, po
[42] = Biodistribution in orally dosed cynomolgus monkey urine assessed as 8-hydroxy muraglitazar level by LC/MS analysis; type: ADME, organism-based, Macaca fascicularis; details: in vivo, po
[43] = Metabolic stability in CD1 mouse hepatocytes assessed as 9-hydroxy-O-demethyl muraglitazar level by LC/MS analysis relative to control; type: ADME, cell-based, Hepatocyte
[44] = Biodistribution in orally dosed cynomolgus monkey feces assessed as 8-hydroxy-O-demethyl muraglitazar level by LC/MS analysis; type: ADME, organism-based, Macaca fascicularis; details: in vivo, po
Plasma [45] = experiment: Biodistribution in orally dosed human plasma assessed as muraglitazar glucuronide level after 1 hr by LC/MS analysis; type: ADME, organism-based; details: in vivo, po
Rattus norvegicus [46] = experiment: Biodistribution in orally dosed Sprague-Dawley rat urine assessed as 12-hydroxy-O-demethyl muraglitazar level by LC/MS analysis; type: ADME, organism-based; details: in vivo, po
[47] = Fecal excretion of compound in orally dosed human within 96 hrs; type: ADME, organism-based; details: faeces, po, read-out: Activity
Plasma [48] = experiment: Biodistribution in orally dosed human plasma assessed as […] muraglitazar level after 4 hrs by LC/MS analysis; type: ADME, organism-based; details: in vivo, po
Rattus norvegicus [49] = experiment: Biodistribution in orally dosed Sprague-Dawley rat feces assessed as imide derivative of muraglitazar level by LC/MS analysis; type: ADME, organism-based; details: in vivo, po
[50] = Drug concentration in Beagle dog feces assessed as recovery of radioactive dose at 1.9 mg/kg, po after 168 hrs; type: ADME, organism-based, Canis lupus familiaris; design: dose 1.9 mg/kg, route oral; details: in vivo
[51] = Metabolic stability in CD1 mouse hepatocytes assessed as O-dealkyl-O-demethyl muraglitazar level by LC/MS analysis relative to control; type: ADME, cell-based, Hepatocyte
Plasma [52] = experiment: Biodistribution in orally dosed cynomolgus monkey plasma assessed as 12-hydroxy-O-demethyl muraglitazar level after 1 hr by LC/MS analysis; type: ADME, organism-based, Macaca fascicularis; details: in vivo, po

COc1ccc(OC(=O)N(CC(=O)O)Cc2ccc(OCCc3nc(-c4ccccc4)oc3C)cc2)cc1 [MURAGLITAZAR]
Drug uptake [1]: 5%
Drug uptake (Hepatocyte [2]): < 0.2%
Drug uptake [3]: 8.2%
Drug uptake [4]: 0.06%
Drug uptake (Plasma [5]): 0.3%
Drug uptake [6]: 0.08%
Drug uptake [7]: 2.1%
Drug uptake [8]: < 0.2%
Drug uptake (Hepatocyte [9]): < 0.2%
Drug uptake [10]: 0.03%
Drug uptake [11]: 23.6%
Drug uptake [12]: 2.8%
Drug uptake [13]: 8.3%
Drug uptake (Plasma [14]): 0.3%
dose excreted at 48 h [15]: 36%
Drug uptake (Plasma [16]): < 0.05%
Tmax [17]: 1 h
Drug uptake [18]: 1.2%
Drug uptake (Plasma [19]): 0.1%
dose excreted at 24 h [20]: 85%
Drug uptake [21]: 0.89%
Drug uptake (Plasma [22]): 1%
Drug uptake (Hepatocyte [23]): 7.5%
Drug uptake (Hepatocyte [24]): 0.5%
Stability (Hepatocyte [25]): 98.7%
Drug uptake (Hepatocyte [26]): 1.1%
Drug uptake [27]: 2.46%
Drug uptake (Rattus norvegicus [28]): < 0.01%
Drug uptake [29]: 35.7%
Drug uptake [30]: < 0.2%
Drug uptake (Hepatocyte [31]): < 0.2%
Drug uptake (Plasma [32]): < 0.05%
Drug uptake (Hepatocyte [33]): 0.3%
Drug uptake [34]: 2.83%
Drug uptake (Plasma [35]): 2.1%
Drug uptake [36]: 0.56%
half-life [37]: 3.8 h
Drug uptake (Plasma [38]): < 0.05%
Drug uptake [39]: 0.18%
Cmax (Rattus norvegicus [40]): 13.5 ugequiv/ml
Drug uptake (Plasma [41]): 0.2%
Drug uptake [42]: 0.12%
Drug uptake [43]: 1.2%
Drug uptake [44]: 1.29%
Drug uptake (Plasma [45]): 2.5%
Drug uptake (Rattus norvegicus [46]): 0.01%
dose excreted at 96 h [47]: 80%
Drug uptake (Plasma [48]): < 0.05%
Drug uptake (Rattus norvegicus [49]): 2.63%
Drug uptake [50]: 89%
Drug uptake [51]: 5.7%
Drug uptake (Plasma [52]): 1.5%
